Laboratory results: patent US20240216412A1, “OXIDIZED NICOTINAMIDE ADENINE DINUCLEOTIDE (NAD+) PRECURSOR TREATMENT FOR HEART FAILURE ALLEVIATION INDEPENDENT OF MITOCHONDRIAL PROTEIN DEACETYLATION” (University of Washington, priority 2022, published 2024)

Tests used:
[1] = tested on: isoproterenol (ISO) induced heart failure in WT and Sirt3Ko mice; test: Isoproterenol (ISO) minipump induced heart failure, echocardiography and HW/TL; assay type: in vivo, mouse; conditions: 14 days of ISO, NR plus GW6471 4.5 mg/kg/day
Protocol: Minipump implantation. Pathologic hypertrophy was induced by treating male (3-4 months old) Sirt3ko and WT mice with isoproterenol (ISO) or vehicle for 14 days. Mice with and without GW6471(4.5 mg/kg/day) were treated with NR (500 mg/kg body weight IP daily) or vehicle starting at day one after mini-pump insertion. Briefly, an incision was made in the skin between the shoulder blades. A deep subcutaneous pocket was made caudal to the incision using blunt dissection. The sterile minipump (Alzet #2002) was inserted into the pocket, and the incision was closed with wound clips. Isoproterenol (30 mg/kg/day) was delivered by osmotic minipump for 14 days. Minipumps carrying saline were used as a control.
Transthoracic Echocardiography. Echocardiography of hearts was performed at indicated time after surgery using the VEVO 2100 high-frequency, high-resolution digital imaging system (VisualSonics) equipped with a MS400 Microscan Transducer on anesthetized mice (0.5%-2% isoflurane in 95% oxygen). Measurements were made when heart rate was >450 bpm. Cardiac function and geometry measurements were measured in parasternal short axis view. M-mode images were used for analysis and calculated by the average of at least three cardiac cycles and carried out in a blind fashion. Hearts were harvested at 12-week post-surgery for subsequent experiments and biochemical assays.
Organ weight and histological assessment. Hearts from mice were harvested, rinsed briefly in 1×PBS, blotted dry, and weighed. Lungs from the same mice were harvested, weighed, then dried at 56 C. After 72 hours the lungs were weighed again. Heart weight (HW) and Lung weight (LW) was normalized to tibia length (TL) to assess changes in hypertrophic growth and lung edema, respectively. For histology, hearts were perfusion fixed with 10% neutral buffered formalin. Longitudinal sections of hearts were stained with Masson's Trichrome for assessment of fibrosis by the University of Washington Histology and Imaging Core.

[2] = tested on: heart mRNA levels (Nppa, Ctgf, mtDNA encoded genes, PPARα/RXRα target genes); test: RT-PCR of heart transcripts and mitochondrial RNA junctions; assay type: in vivo, mouse; conditions: ISO treated hearts, NR in the presence of GW6471
Protocol: RNA Extraction and Quantitative Real-Time Polymerase Chain Reaction (RT-PCR). Total RNA was isolated from frozen heart tissue using the RNeasy fibrous Kit (Qiagen). Total RNA was reverse-transcribed into first-strand cDNA using Iscript (Bio-rad) according to manufacturer's guidelines. Real Time PCR was performed using SYBR green (Bio-Rad). Results of mRNA levels were normalized to 18S rRNA levels and reported as fold-change over control.

cardiac mitochondria = test: Isolated cardiac mitochondria respiration (oxygen electrode); assay type: in vivo, mouse; conditions: ISO treated mice, GW6471 in addition to NR
Protocol: Mitochondrial Isolation from cardiac tissue. Hearts were excised from mice, the aortas and atria were removed. Heart tissues were rinsed briefly in ice-cold mitochondria isolation medium (MIM) (70 mM sucrose, 220 mM mannitol, 5 mM MOPS, 1 mM EDTA, 0.025% fatty acid-free BSA, pH 7.4 with 5M KOH) to remove residual blood. Tissues were minced on ice and resuspended in fresh MIM, followed by trypsin digestion (10 ug/ml) and incubated on ice for 10 min. Trypsin digestion was stopped by the addition of trypsin inhibitor (0.5 mg/ml) and additional BSA (1 mg/ml) to MIM. The tissue pellets were resuspended in fresh MIM containing 1 mg/ml BSA, and transferred to a Teflon-glass tube and homogenized on ice with a Teflon pestle. The homogenates were centrifuged for 10 min at 800×g at 4° C. The supernatants were collected and centrifuged for 10 min at 8,000×g at 4° C. The supernatant was discarded and the mitochondrial pellets were resuspended in MIM to wash. The resuspension was centrifuged for 10 min at 8,000×g at 4° C., and the supernatant discarded. The mitochondrial pellet was resuspended to a concentrated volume for protein quantification by BCA Assay (Pierce).
Mitochondrial respirations. Isolated mitochondria respiration experiments were performed in an Clark type oxygen electrode Oxytherm System (Hansatech Instruments) at 30C. Briefly, freshly isolated mitochondria were added to respiration buffer (125 mM KCl, 20 mM HEPES, 3 mM MgCl2, 400 μM EGTA, 5 mM KH2PO4, 0.2% BSA (fatty acid free), pH 7.2) and placed in the respiration chamber to measure baseline respiration (State 1). The change in oxygen levels following the immediate addition of substrates (pyruvate/malate (5 mM/2 mM) or palmitoylcarnitine/malate (50 μM/2 mM) (State 2) followed by the sequential addition of 2.5 mM ADP (State 3), […] Oligomycin (State 4p) and 1 μM FCCP (FCCP Max). Antimycin A (2.5 μM) was added last to measure the residual oxygen consumption not accounted for by the electron transfer chain and it was subtracted from the previous measurements.

RXRα = test: Chromatin immunoprecipitation (ChIP) of RXRα at the Acadm promoter PPRE; assay type: in vivo; conditions: ISO mouse hearts, NR plus GW6471
Protocol: Chromatin immunoprecipitation (ChIP). The EZ ChIP kit (EMD Millipore catalog #17-371) was used according to the manufacturer's protocol. Briefly, heart tissue was cut into small pieces using a razor blade in a petri dish on ice. The cubed tissue was incubated in fixation solution (1% formaldehye) in a conical tube and rotated at room temperature for 15 minutes to crosslink proteins and chromatin. The reaction was stopped by adding 0.125M Glycine for 5 min at room temperature. The contents were homogenized with a hand-held tissue homogenizer for 45 seconds then pelleted by centrifugation for 3 minutes at 1,250×g at 4C. The supernatant was discarded and the pellet was resuspended in 10 ml ice-cold PBS wash buffer followed by centrifugation at 1,250×g for 3 minutes. This was wash step was repeated on ice. The supernatant was discarded and the pellet resuspended in 5 ml chromatin prep buffer and incubated on ice for 10 minutes. The resuspended pellet was homogenized on ice with a dounce homogenizer for 30 strokes and then contents transferred to new conical tube on ice. The suspension was centrifuged 3 minutes at 1,250×g at 4C then supernatant discarded. The pellet was resuspended in 1 ml Chip buffer and transferred to new centrifuge tube then incubated on ice for 10 minutes. […] Purified chromatin was analyzed on a 1% agarose gel to determine the shearing efficiency. […]

SMILES: CCC(=O)NC[C@H](Cc1ccc(OCCc2nc(-c3ccccc3)oc2C)cc1)N/C(C)=C\C(=O)c1ccc(C(F)(F)F)cc1 [GW6471]
- Protection by NR (FS %, cardiac hypertrophy) [1]: blocked
- PPARα/RXRα target gene expression [2]: failed to preserve
- Restoration by NR of PLC supported State 3 respiration (cardiac mitochondria): clearly blocked
- NR-induced increase of RXRα binding occupancy at the Acadm PPRE (RXRα): blocked
